Measured values reported in patent publication US9056111B1, “Selective efflux inhibitors and related pharmaceutical compositions and methods of treatment” (STC.UNM, priority 2011, dated 2015).
Like-named read-outs stand apart in the source and are kept apart here.

Tests used:
[1] = target: ABCB1 (Homo sapiens, UniProt P08183); experiment: JC-1 efflux inhibition dose response, flow cytometry, Jurkat-DNR cells; details: for IC50: Jurkat-DNR cells over-expressing ABCB1, averages of two to four replicates; for efflux inhibition activity ABCB1: JC-1 efflux, Jurkat-DNR
Sequence of ABCB1 (P08183 whole entry): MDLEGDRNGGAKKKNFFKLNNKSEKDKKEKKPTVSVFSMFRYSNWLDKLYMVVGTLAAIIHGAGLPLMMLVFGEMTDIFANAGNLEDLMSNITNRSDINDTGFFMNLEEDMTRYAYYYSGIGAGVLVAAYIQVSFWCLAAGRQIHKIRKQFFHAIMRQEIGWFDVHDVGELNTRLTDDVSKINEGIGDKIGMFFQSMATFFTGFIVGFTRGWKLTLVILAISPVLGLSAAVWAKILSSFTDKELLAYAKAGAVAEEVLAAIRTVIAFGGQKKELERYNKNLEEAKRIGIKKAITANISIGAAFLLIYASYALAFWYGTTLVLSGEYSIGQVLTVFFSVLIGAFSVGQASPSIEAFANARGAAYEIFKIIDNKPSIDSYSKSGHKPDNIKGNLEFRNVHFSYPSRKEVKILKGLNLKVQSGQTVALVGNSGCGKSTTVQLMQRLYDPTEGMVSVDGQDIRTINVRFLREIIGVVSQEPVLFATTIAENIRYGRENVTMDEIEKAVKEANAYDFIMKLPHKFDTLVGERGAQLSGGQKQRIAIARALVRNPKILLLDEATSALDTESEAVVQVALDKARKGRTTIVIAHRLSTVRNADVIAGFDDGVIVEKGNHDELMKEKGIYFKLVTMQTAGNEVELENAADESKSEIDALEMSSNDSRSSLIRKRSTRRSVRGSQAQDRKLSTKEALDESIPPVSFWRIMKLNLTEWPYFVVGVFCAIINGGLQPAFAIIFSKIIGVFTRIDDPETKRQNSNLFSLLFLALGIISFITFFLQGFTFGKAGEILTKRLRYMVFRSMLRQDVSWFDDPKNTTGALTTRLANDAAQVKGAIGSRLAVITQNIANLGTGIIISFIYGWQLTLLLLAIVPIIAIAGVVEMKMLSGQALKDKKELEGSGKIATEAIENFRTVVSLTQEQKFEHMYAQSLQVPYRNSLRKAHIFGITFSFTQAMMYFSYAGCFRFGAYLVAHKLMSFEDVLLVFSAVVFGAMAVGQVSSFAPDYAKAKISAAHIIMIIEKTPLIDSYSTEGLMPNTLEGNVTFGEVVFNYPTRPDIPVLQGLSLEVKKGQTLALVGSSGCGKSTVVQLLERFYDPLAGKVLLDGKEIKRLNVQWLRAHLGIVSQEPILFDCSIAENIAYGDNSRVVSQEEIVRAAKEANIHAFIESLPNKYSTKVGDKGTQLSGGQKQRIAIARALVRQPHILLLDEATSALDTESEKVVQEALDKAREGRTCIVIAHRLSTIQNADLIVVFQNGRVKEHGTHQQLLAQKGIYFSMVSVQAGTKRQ
Description: (§1) The HyperCyt® high throughput flow cytometry platform (IntelliCyt™, Albuquerque, N. Mex.) was used to sequentially sample cells from 384-well microplates (2 μL/sample) for flow cytometer presentation at a rate of 40 samples per minute.^62-63 Flow cytometric analysis was performed on a CyAn™ flow cytometer (Beckman-Coulter, Fullerton, Calif.). The resulting time-gated data files were analyzed with HyperView® software to determine compound activity in each well. Inhibition response curves were fitted by Prism® software (GraphPad Software, Inc., San Diego, Calif.) using nonlinear least-squares regression in a sigmoidal dose response model with variable slope, also known as the four-parameter logistic equation. This type of time-gated flow cytometric data analysis was described in detail for a previous ABC transporter screen from our group.^56
The assay provider's ABCB1 over-expressing Jurkat-DNR cell line is used for confirmatory follow up instead of the CCRF-Adr cells. Each cell line (Jurkat-DNR and Ig-MXP3) is run separately against all compounds (no differential cell staining) in dose response. The assay is conducted in 384-well format in a total volume of 15.1 μL. Cells and reagents are added sequentially as follows: 1) PBS buffer (5 μL/well); 2) test compound (100 nL/well); 3) drug-resistant cells (10 μL/well) pre-stained with the JC-1 substrate at 1 μM. Final in-well concentrations of test compound range from 50 μM to 69 nM over an 18 point dose response and the cell concentration is 1×10^6 cells/mL. Nicardipine (50 μM) is added to each plate as a pan-inhibition positive control. The plate is rotated end-over-end at 4 RPM and 25° C. for 30 minutes and then cell samples are analyzed and flow cytometric data of light scatter and fluorescence emission at 530+/−20 nm (488 nm excitation, FL1) are collected.
(§2) Each cell line (Jurkat-DNR and Ig-MXP3) was run separately against all compounds (no differential cell staining) in dose-response. The protocol differed from the single point screen as describe here. Cells and reagents were added sequentially as follows: 1) PBS buffer (5 μL per well); 2) test compound (100 nL per well); 3) drug-resistant cells (10 μL, per well) pre-exposed to the JC-1 substrate at 1 μM just prior to the well addition. Final in-well concentrations of test compound ranged from 50 μM to 69 nM over an 18 point dose-response and the cell concentration was 1×10^6 cells mL^−1.

[2] = target: T1, ABCG2 (Homo sapiens, UniProt Q9UNQ0); experiment: JC-1 efflux inhibition dose response, flow cytometry, Ig-MXP3 cells; details: for ~Fold G2 Selective (B1/G2): quotient of average ABCB1 IC50 and average ABCG2 IC50, efflux assay
T1 sequence (Q9UNQ0 1-655): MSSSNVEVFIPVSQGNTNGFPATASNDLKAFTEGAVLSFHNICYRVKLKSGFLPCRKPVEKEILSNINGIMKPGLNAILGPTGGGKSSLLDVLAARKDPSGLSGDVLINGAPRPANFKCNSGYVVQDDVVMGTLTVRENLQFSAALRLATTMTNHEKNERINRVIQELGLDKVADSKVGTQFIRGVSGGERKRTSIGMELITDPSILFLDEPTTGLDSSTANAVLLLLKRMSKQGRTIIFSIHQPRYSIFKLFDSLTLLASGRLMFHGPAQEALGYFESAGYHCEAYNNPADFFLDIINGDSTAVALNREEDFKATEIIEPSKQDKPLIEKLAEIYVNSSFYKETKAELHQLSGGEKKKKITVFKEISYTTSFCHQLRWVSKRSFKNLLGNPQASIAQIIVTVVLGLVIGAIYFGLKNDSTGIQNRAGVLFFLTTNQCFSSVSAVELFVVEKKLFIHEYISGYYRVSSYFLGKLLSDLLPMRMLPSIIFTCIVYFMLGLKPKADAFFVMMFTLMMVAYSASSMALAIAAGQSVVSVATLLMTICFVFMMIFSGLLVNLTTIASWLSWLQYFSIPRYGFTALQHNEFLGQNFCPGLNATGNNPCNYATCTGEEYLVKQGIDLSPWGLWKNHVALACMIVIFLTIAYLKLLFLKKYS
Description: as §1
(§3) The assay provider's ABCB1 over-expressing Jurkat-DNR cell line is used for confirmatory follow up instead of the CCRF-Adr cells. Each cell line (Jurkat-DNR and Ig-MXP3) is run separately against all compounds (no differential cell staining) in dose response. The assay is conducted in 384-well format in a total volume of 15.1 μL. Cells and reagents are added sequentially as follows: 1) PBS buffer (5 μL/well); 2) test compound (100 nL/well); 3) drug-resistant cells (10 μL/well) pre-stained with the JC-1 substrate at 1 μM. […] Nicardipine (50 μM) is added to each plate as a pan-inhibition positive control.
as §2, with “addition.” for “addition. Final in-well concentrations of test compound ranged from 50 μM to 69 nM over an 18 point dose-response and the cell concentration was 1×10^6 cells mL^−1.”

[3] = target: T2, ABCB1 / ABCG2 (Homo sapiens, UniProt Q9UNQ0); experiment: as above; details: human, probe JC-1 (1 µM), ~Fold G2 Selective (B1/G2), quotient of average ABCB1 IC50 and average ABCG2 IC50, efflux assay
T2 sequence (Q9UNQ0 1-655): T1 sequence (Q9UNQ0 1-655)
Description: as §1, §3
as §2, with “addition.” for “addition. Final in-well concentrations of test compound ranged from 50 μM to 69 nM over an 18 point dose-response and the cell concentration was 1×10^6 cells mL^−1.”

[4] = read-out: IC50 ABCB1 (efflux inhibition of JC-1 substrate)
[5] = read-out: IC50 ABCG2 (efflux inhibition of JC-1 substrate), Ig-MXP3 cells over-expressing ABCG2, averages of two to four replicates
[6] = IC50 ABCB1 (efflux inhibition of JC-1 substrate)

| SMILES | IC50 [1, 4] | ~Fold G2 Selective (B1/G2) [2] | IC50 [2, 5] | IC50 [1, 6] | IC50 [2] | selectivity ratio at 30 min [3] | efflux inhibition activity ABCB1 [1] | efflux inhibition activity ABCG2 ([2]; JC-1 efflux, Ig-MXP3) |
| --- | --- | --- | --- | --- | --- | --- | --- | --- |
| Cc1cc(C(=O)N2CCN(c3cc(-c4ccco4)nc4cc(-c5ccccc5)nn34)CC2)c(C)o1 [Compound 72] | 12 ± 6.11 µM | 3.6 fold | 3.37 ± 1.19 µM |  |  |  |  |  |
| O=C(c1ccoc1)N1CCN(c2cc(-c3ccccc3F)nc3cc(-c4cccc(Cl)c4)nn23)CC1 [Compound 26] |  |  |  | 4.69 ± 1.5 µM | 1.93 ± 0.48 µM | 2.4 |  |  |
| O=C(c1ccccc1)N1CCN(c2cc(-c3ccccc3)nc3cc(-c4cccc(F)c4)nn23)CC1 [Compound 42] |  |  |  | 4.34 ± 2.09 µM | 2.27 ± 0.06 µM | 1.9 |  |  |
| CN(CCCN(C)c1cc(-c2ccco2)nc2cc(-c3ccccc3)nn12)C(=O)c1ccoc1 [Compound 81] |  |  |  | 13.1 ± 6.27 µM | 5.43 ± 4.11 µM | 2.4 |  |  |
| COc1ccccc1-c1cc2nc(-c3ccccc3)cc(N3CCN(C(=O)c4ccccc4)CC3)n2n1 [Compound 41] | 2.31 ± 0.79 µM | 3.0 fold | 0.76 ± 0.06 µM |  |  |  |  |  |
| COc1ccc(C(=O)N2CCN(c3cc(-c4ccccc4)nc4cc(-c5cccc(Cl)c5)nn34)CC2)cc1 [Compound 16] |  |  |  | 2.89 ± 0.55 µM | 2.82 ± 1.91 µM | 1 |  |  |
| Cc1cccc(-c2cc3nc(-c4ccccc4)cc(N4CCN(C(=O)c5ccco5)CC4)n3n2)c1 [Compound 40] |  |  |  | 3.88 ± 1.67 µM | 2.46 ± 1.09 µM | 1.6 |  |  |
| O=C(c1ccccc1)N1CCN(c2cc(-c3ccccc3)nc3cc(-c4ccc(F)cc4)nn23)CC1 [Compound 43] |  |  |  | 3.99 ± 2.31 µM | 2.03 ± 0.11 µM | 2 |  |  |
| CC(C)(C)c1cc(N2CCN(C(=O)c3ccoc3)CC2)n2nc(-c3ccccc3)cc2n1 [Compound 49] |  |  |  | 5.62 µM | 11.5 µM | 0.5 |  |  |
| Cc1ccc(-c2cc3nc(-c4ccco4)cc(N4CCN(C(=O)c5ccoc5)CC4)n3n2)cc1 [Compound 59] |  |  |  | 11.3 µM | 5.19 ± 4.22 µM | 2.2 |  |  |
| O=C(c1ccccc1Cl)N1CCN(c2cc(-c3ccccc3)nc3cc(-c4cccc(Cl)c4)nn23)CC1 [Compound 17] |  |  |  | 1.85 ± 0.75 µM | 1.31 ± 0.23 µM | 1.4 |  |  |
| O=C1CN(c2cc(-c3ccco3)nc3cc(-c4ccccc4)nn23)CCN1c1ccccc1 [Compound 83] |  |  |  | 4.06 ± 1.78 µM | 1.64 ± 0.52 µM | 2.5 |  |  |
| COc1ccccc1C(=O)N1CCN(c2cc(-c3ccccc3)nc3cc(-c4cccc(Cl)c4)nn23)CC1 [Compound 14] |  |  |  | 4.73 ± 1.78 µM | 4.92 ± 4.28 µM | 1 |  |  |
| CC1CN(C(=O)c2ccoc2)CCN1c1cc(-c2ccco2)nc2cc(-c3ccccc3)nn12 (stereo not shown) [Compound 86] |  |  |  | 3.27 ± 1.43 µM | 4.65 ± 3.96 µM | 0.7 |  |  |
| CN(CCN(C)c1cc(-c2ccco2)nc2cc(-c3ccccc3)nn12)C(=O)c1ccoc1 [Compound 80] |  |  |  | 17.5 ± 5.88 µM | 13 ± 7.88 µM | 1.3 |  |  |
| C#Cc1cc(N2CCN(C(=O)c3ccoc3)CC2)n2nc(-c3cccc(Cl)c3)cc2n1 [Compound 32] |  |  |  | 10.2 ± 3.99 µM | 2.36 ± 0.53 µM | 4.3 |  |  |
| COc1ccc2c3c([nH]c2c1)[C@H](C=C(C)C)N1C(=O)[C@@H]2CCCN2C(=O)[C@@H]1C3 [Compound 3, reference compound] |  |  |  |  |  |  | no activity | no activity |
| O=C(c1ccsc1)N1CCN(c2cc(-c3ccco3)nc3cc(-c4ccccc4)nn23)CC1 [Compound 68] | 4.93 ± 1.76 µM | 3.6 fold | 1.38 ± 1.04 µM |  |  |  |  |  |
| O=S(=O)(c1ccccc1)N1CCN(c2cc(-c3ccccc3)nc3cc(-c4cccc(Cl)c4)nn23)CC1 [Compound 25] |  |  |  | > 50 µM | > 50 µM |  |  |  |
| CN(C)CCN(C)c1cc(-c2ccco2)nc2cc(-c3ccccc3)nn12 [Compound 78] |  |  |  | > 50 µM | 8.88 ± 2.82 µM |  |  |  |
| Cc1occc1C(=O)N1CCN(c2cc(-c3ccco3)nc3cc(-c4ccccc4)nn23)CC1 [Compound 70] | 11.9 ± 7.4 µM | 5.1 fold | 2.33 ± 2.23 µM |  |  |  |  |  |

Further lines, with some results ahead:

| IC50 [1, 4] | ~Fold G2 Selective (B1/G2) [2] | IC50 [2, 5] | IC50 [1, 6] | IC50 [2] | SMILES | selectivity ratio at 30 min [3] | efflux inhibition activity ABCB1 [1] | efflux inhibition activity ABCG2 ([2]; JC-1 efflux, Ig-MXP3) |
| --- | --- | --- | --- | --- | --- | --- | --- | --- |
| 8.83 ± 6.63 µM | 3.1 fold | 2.84 ± 0.96 µM |  |  | O=C(c1coc2ccccc12)N1CCN(c2cc(-c3ccco3)nc3cc(-c4ccccc4)nn23)CC1 [Compound 73] |  |  |  |
|  |  |  | 11.9 ± 8.94 µM | 25.5 ± 13.4 µM | CNCCCN(C)c1cc(-c2ccco2)nc2cc(-c3ccccc3)nn12 [Compound 79] | 0.5 |  |  |
|  |  |  | 2.36 ± 0.7 µM | 2.67 ± 0.85 µM | O=C(c1ccc(Cl)cc1)N1CCN(c2cc(-c3ccccc3)nc3cc(-c4cccc(Cl)c4)nn23)CC1 [Compound 19] | 0.9 |  |  |
|  |  |  | 3.98 ± 1.3 µM | 0.93 ± 0.27 µM | O=C(c1ccoc1)N1CCN(c2cc(-c3ccco3)nc3cc(-c4cccc(-c5ccco5)c4)nn23)CC1 [Compound 60] | 4.3 |  |  |
|  |  |  | 4.55 µM | 2.37 ± 1.8 µM | COc1ccc(-c2cc(N3CCN(C(=O)c4ccoc4)CC3)n3nc(-c4ccccc4)cc3n2)cc1 [Compound 45] | 1.9 |  |  |
|  | 18.5 fold |  | > 50 µM | 2.71 ± 1.95 µM | O=C(OCc1ccccc1)N1CCN(c2cc(-c3ccco3)nc3cc(-c4ccccc4)nn23)CC1 [Compound 76] | ~19 | completely lost |  |
|  |  |  | 15.8 ± 3.33 µM | 7.27 ± 3.01 µM | Cc1cc(N2CCN(C(=O)c3ccoc3)CC2)n2nc(-c3ccccc3)cc2n1 [Compound 63] | 2.2 |  |  |
|  |  |  | 19.1 ± 9.52 µM | 2.25 ± 1.9 µM | O=C(c1ccoc1)N1CCCN(c2cc(-c3ccco3)nc3cc(-c4ccccc4)nn23)C1 [Compound 85] | 8.5 |  |  |
| 3 ± 0.57 µM | 2.9 fold | 1.03 ± 0.17 µM |  |  | COc1ccccc1-c1cc2nc(-c3ccccc3)cc(N3CCN(C(=O)c4ccco4)CC3)n2n1 [Compound 37] |  |  |  |
|  |  |  | > 50 µM | 8.03 ± 2.18 µM | O=C(Nc1ccccc1)C1CCN(c2cc(-c3ccco3)nc3cc(-c4ccccc4)nn23)CC1 [Compound 84] |  |  |  |
| 7.32 ± 2.52 µM | 2.0 fold | 3.68 ± 2.21 µM |  |  | Cc1coc(C)c1C(=O)N1CCN(c2cc(-c3ccco3)nc3cc(-c4ccccc4)nn23)CC1 [Compound 71] |  |  |  |
